ChEMBL document CHEMBL3872283, “Design, Synthesis, and Evaluation of Novel and Selective G-protein Coupled Receptor 120 (GPR120) Spirocyclic Agonists” (ACS Med Chem Lett, 2017)
Activity calls are given as the source filed them. No cut-off for these calls is given here.

How the values were obtained:
[1] = Plasma clearance in rat at 1 mg/kg, iv or 2 mg/kg, po by LC/MS/MS analysis; type: ADME, organism-based
Mus musculus [2] = experiment: Decrease in insulin levels in diet-induced obese mouse at 30 mg/kg, po qd administered daily via gavage for 28 days measured on day 28 post dose; type: functional, organism-based
[3] = MRT in rat at 1 mg/kg, iv or 2 mg/kg, po by LC/MS/MS analysis; type: ADME, organism-based; settings: in vivo
[4] = Volume of distribution at steady state in rhesus monkey at 0.5 mg/kg, iv or 1 mg/kg, po by LC/MS/MS analysis; type: ADME, organism-based, Macaca mulatta; settings: in vivo, read-out: Vdss
[5] = target: T1, Peroxisome proliferator-activated receptor alpha (Homo sapiens) (UniProt Q07869); experiment: Binding affinity to human PPARalpha
T1 sequence (whole entry): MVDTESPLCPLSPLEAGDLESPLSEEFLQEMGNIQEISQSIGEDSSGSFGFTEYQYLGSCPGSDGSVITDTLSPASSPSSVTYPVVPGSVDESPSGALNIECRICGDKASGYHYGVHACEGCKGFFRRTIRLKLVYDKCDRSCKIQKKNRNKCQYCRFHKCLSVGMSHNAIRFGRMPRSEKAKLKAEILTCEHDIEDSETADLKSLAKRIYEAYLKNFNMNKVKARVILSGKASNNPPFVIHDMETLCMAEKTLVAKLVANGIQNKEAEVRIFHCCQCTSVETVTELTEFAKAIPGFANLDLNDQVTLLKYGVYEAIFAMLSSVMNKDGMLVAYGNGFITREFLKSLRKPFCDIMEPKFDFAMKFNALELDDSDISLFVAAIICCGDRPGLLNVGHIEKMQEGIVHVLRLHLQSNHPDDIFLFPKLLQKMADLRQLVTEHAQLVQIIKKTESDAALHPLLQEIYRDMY

Mus musculus [6] = experiment: Antidiabetic activity in diet-induced obese mouse assessed as insulin sensitivity by measuring reduction in glucose at 30 mg/kg, po qd administered daily via gavage for 14 days measured on day 14 post dose; type: functional, organism-based
[7] = Oral bioavailability in rat at 2 mg/kg by LC/MS/MS analysis; type: ADME, organism-based; settings: in vivo
[8] = Volume of distribution at steady state in dog at 1 mg/kg, iv or 2 mg/kg, po by LC/MS/MS analysis; type: ADME, organism-based, Canis lupus familiaris; settings: in vivo, read-out: Vdss
[9] = AUC in mouse at 2 mg/kg, iv by LC/MS/MS analysis; type: ADME, organism-based; settings: in vivo
Cytochrome P450 2D6 = Cytochrome P450 2D6 (Homo sapiens, UniProt P10635); experiment: Inhibition of human CYP2D6; type: ADME
[10] = Protein binding in rhesus monkey plasma at 0.5 mg/kg, iv or 1 mg/kg, po by LC/MS/MS analysis; type: ADME, organism-based, Macaca mulatta; settings: read-out: PPB (converted)
[11] = Antidiabetic activity in C57BL/6 mouse at 30 mg/kg, po administered 60 mins via gavage prior to dextrose challenge measured up to 120 mins post dextrose challenge by oGTT; type: functional, organism-based
Mus musculus [12] = experiment: Toxicity in diet-induced obese mouse assessed as change in body weight at 30 mg/kg, po qd administered daily via gavage for 28 days; type: organism-based; settings: in vivo, 672 h
[13] = target: T2, Free fatty acid receptor 4 (Mus musculus, UniProt Q7TMA4); experiment: Agonist activity at mouse GPR120 expressed in CHOK1 cells assessed as induction of IP1 accumulation after 60 mins by HTRF assay; type: functional, cell-based, CHO-K1
T2 sequence (Q7TMA4 whole entry): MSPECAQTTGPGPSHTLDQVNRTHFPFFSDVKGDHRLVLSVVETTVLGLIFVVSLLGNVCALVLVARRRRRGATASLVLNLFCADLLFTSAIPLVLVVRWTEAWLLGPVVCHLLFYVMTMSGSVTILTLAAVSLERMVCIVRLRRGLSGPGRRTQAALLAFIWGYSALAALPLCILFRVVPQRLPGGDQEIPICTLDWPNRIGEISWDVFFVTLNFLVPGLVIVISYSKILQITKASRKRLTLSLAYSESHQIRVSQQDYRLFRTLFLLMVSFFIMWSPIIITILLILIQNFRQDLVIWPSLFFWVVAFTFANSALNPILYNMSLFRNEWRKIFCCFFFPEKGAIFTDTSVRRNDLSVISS

Mus musculus [14] = experiment: Antidiabetic activity in diet-induced obese mouse assessed as reduction in homeostatic model assessment of insulin resistance at 30 mg/kg, po qd administered daily via gavage for 28 days measured on day 28 post dose; type: functional, organism-based
Cytochrome P450 3A4 = Cytochrome P450 3A4 (Homo sapiens, UniProt P08684); experiment: Inhibition of human CYP3A4; type: ADME
[15] = Antidiabetic activity in C57BL/6 mouse administered 60 mins via oral gavage prior to dextrose challenge measured up to 120 mins post dextrose challenge by oGTT; type: functional
[16] = Protein binding in dog plasma at 1 mg/kg, iv or 2 mg/kg, po by LC/MS/MS analysis; type: ADME, organism-based, Canis lupus familiaris; settings: read-out: PPB (converted)
[17] = Half life in rat at 1 mg/kg, iv or 2 mg/kg, po by LC/MS/MS analysis; type: ADME, organism-based; settings: in vivo
[18] = target: T3, Peroxisome proliferator-activated receptor delta (Homo sapiens) (UniProt Q03181); experiment: Binding affinity to human PPARdelta
T3 sequence (whole entry): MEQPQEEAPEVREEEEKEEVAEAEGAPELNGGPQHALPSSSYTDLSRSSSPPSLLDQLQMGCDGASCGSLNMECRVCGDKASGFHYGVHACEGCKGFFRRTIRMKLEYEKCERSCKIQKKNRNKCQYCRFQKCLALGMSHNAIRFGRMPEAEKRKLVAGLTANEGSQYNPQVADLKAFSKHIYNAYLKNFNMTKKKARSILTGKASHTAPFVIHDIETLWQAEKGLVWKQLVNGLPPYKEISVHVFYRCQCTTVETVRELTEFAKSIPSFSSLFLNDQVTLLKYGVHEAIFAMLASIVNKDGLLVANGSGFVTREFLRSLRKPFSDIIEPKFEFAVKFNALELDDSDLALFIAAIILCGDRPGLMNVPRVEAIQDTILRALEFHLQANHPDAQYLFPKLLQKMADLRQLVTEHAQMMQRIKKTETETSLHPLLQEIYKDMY

[19] = AUC in rat at 1 mg/kg, iv by LC/MS/MS analysis; type: ADME, organism-based; settings: in vivo
[20] = Half life in dog at 1 mg/kg, iv or 2 mg/kg, po by LC/MS/MS analysis; type: ADME, organism-based, Canis lupus familiaris; settings: in vivo
Mus musculus [21] = experiment: Antidiabetic activity in diet-induced obese mouse assessed as increase in glucose infusion rate during hyperinsulinemic euglycemic clamp procedure at 30 mg/kg, po qd administered daily via gavage measured after 28 days; type: functional, organism-based

Chain of Cytochrome P450 2D6 (P10635 whole entry): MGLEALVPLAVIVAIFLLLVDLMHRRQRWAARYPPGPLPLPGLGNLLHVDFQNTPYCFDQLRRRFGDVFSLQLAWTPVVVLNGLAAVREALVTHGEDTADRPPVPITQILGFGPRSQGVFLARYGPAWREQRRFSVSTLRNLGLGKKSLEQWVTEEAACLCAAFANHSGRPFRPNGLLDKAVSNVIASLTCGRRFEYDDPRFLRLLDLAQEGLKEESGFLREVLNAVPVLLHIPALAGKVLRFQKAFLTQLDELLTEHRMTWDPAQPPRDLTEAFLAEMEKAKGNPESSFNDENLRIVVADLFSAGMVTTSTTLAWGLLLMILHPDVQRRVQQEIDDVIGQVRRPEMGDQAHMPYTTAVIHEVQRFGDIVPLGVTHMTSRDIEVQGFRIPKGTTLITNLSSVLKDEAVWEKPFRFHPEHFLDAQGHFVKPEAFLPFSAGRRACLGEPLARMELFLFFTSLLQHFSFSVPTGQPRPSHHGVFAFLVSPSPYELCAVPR
Chain of Cytochrome P450 3A4 (P08684 whole entry): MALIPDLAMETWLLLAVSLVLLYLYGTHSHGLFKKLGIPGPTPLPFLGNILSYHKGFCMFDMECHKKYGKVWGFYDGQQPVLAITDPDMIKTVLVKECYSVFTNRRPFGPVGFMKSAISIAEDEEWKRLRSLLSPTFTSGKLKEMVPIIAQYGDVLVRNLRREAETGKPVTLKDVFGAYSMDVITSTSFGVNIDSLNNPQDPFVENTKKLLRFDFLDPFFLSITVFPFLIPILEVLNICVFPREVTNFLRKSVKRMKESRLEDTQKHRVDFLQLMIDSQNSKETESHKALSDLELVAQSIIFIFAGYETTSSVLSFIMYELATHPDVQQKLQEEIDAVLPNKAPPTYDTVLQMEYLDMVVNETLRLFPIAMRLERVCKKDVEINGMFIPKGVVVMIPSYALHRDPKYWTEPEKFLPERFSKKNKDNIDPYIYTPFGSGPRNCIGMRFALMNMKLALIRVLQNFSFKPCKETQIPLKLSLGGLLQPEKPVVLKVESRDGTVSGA

In the case of `O=C(O)CC1CCC2(CC1)CCN(c1cc(OC(F)(F)F)ccc1Cl)CC2`, the clearance [1] is reported as 0.138 L/h/kg, the Activity (Mus musculus [2]) is reported as “Active” and the MRT [3] is reported as 3 h. The Vd [4] was 1.7 L/kg, the Activity [5] was greater than 10 µM and the Activity (Mus musculus [6]) was “Active”. For the same compound, the bioavailability [7] was 95%, the Vd [8] was 6.7 L/kg and the AUC [9] was 14.6 µM·h. For the same compound, the INH (Cytochrome P450 2D6) was greater than 48 µM, the fraction unbound [10] was 0.0028 and the Activity [11] was “Active”. The Activity (Mus musculus [12]) was “Non-Toxic”, the EC50 [13] was 0.033 µM and the Activity (Mus musculus [14]) was “Active”. For the same compound, the INH (Cytochrome P450 3A4) was greater than 48 µM, the Activity [15] was “Dose-dependent effect” and the fraction unbound [16] was 0.0015. The half-life [17] was 1.4 h, the Activity [18] was greater than 10 µM and the AUC [19] was 17.5 µM·h. The half-life [20] was 11 h and the Activity (Mus musculus [21]) was “Active”.
